According to ChEMBL document CHEMBL3886339, “mGluR4 allosteric potentiators, compositions, and methods of treating neurological dysfunction” (2015):

molecular target: Metabotropic glutamate receptor 4 (Homo sapiens, UniProt Q14833); assay type: functional, cell-based, HEK293
Sequence (Q14833 whole entry): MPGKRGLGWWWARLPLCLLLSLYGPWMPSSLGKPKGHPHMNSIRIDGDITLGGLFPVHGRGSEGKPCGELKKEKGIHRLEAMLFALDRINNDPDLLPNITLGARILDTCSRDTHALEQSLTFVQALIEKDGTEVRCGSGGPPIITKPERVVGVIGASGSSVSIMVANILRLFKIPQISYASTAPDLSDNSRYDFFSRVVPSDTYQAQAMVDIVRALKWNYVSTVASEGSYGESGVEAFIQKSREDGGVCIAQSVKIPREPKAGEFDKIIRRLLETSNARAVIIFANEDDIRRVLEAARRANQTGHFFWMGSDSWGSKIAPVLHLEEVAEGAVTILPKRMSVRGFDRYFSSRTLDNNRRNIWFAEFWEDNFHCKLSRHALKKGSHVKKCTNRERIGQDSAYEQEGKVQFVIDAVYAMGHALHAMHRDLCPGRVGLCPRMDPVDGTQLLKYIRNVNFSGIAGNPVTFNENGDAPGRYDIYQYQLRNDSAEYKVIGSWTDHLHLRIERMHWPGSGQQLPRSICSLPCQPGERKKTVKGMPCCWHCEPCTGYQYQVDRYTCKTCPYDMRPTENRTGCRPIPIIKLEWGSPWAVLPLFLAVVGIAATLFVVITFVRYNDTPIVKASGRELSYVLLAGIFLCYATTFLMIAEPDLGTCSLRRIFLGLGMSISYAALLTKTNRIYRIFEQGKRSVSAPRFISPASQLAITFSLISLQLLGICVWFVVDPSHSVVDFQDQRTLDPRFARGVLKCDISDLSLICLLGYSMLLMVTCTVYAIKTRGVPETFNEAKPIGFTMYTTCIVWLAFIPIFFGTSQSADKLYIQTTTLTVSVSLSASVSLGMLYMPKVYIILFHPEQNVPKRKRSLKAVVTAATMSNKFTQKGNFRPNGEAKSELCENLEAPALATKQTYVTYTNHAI

Row | SMILES | EC50
1 | Cc1cc(S(=O)(=O)n2cc(NC(=O)c3ccccn3)cn2)ccc1Cl | 151 nM
2 | Cc1ccc(S(=O)(=O)n2cc(NC(=O)c3ccccn3)cn2)c(C)c1 | 486 nM
3 | O=C(Nc1cnn(S(=O)(=O)c2cc(Cl)ccc2F)c1)c1ccccn1 | 2250 nM
4 | Cc1cccc(S(=O)(=O)n2cc(NC(=O)c3ccccn3)cn2)c1 | 163 nM
5 | COc1ccc(S(=O)(=O)n2cc(NC(=O)c3ccccn3)cn2)cc1 | 170 nM
6 | O=C(Nc1cnn(S(=O)(=O)c2ccc(F)cc2F)c1)c1ccccn1 | 1620 nM
7 | Cc1cccc(S(=O)(=O)n2cc(NC(=O)c3nccs3)cn2)c1 | 234 nM
8 | O=C(Nc1cnn(S(=O)(=O)c2cccc(Cl)c2F)c1)c1ccccn1 | 5240 nM
9 | Cc1ccc(S(=O)(=O)n2cc(NC(=O)c3nccs3)cn2)cc1 | 324 nM
10 | O=C(Nc1cnn(S(=O)(=O)c2ccc(F)c(F)c2)c1)c1ccccn1 | 1740 nM
11 | O=C(Nc1cnn(S(=O)(=O)c2ccc(Cl)c(F)c2)c1)c1ccccn1 | 3910 nM
12 | Cc1ccc(S(=O)(=O)n2cc(NC(=O)c3ccccn3)cn2)cc1 | 9880 nM
13 | O=C(Nc1cnn(S(=O)(=O)c2ccc(Cl)cc2F)c1)c1ccccn1 | 128 nM
14 | O=C(Nc1cnn(S(=O)(=O)c2ccc(Cl)c(Cl)c2)c1)c1ccccn1 | 204 nM
15 | COc1ccc(S(=O)(=O)n2cc(NC(=O)c3ccccn3)cn2)cc1Cl | 260 nM
16 | O=C(Nc1cnn(S(=O)(=O)c2ccc(F)c(F)c2)c1)c1nccs1 | 4160 nM
17 | Cc1ccc(S(=O)(=O)n2cc(NC(=O)c3ccccn3)cn2)cc1F | 137 nM
18 | CCc1ccc(S(=O)(=O)n2cc(NC(=O)c3ccccn3)cn2)cc1 | 248 nM
19 | Cc1cc(S(=O)(=O)n2cc(NC(=O)c3ccccn3)cn2)ccc1F | 124 nM
20 | O=C(Nc1cnn(S(=O)(=O)c2cc(F)c(F)cc2F)c1)c1ccccn1 | 1770 nM
21 | O=C(Nc1cnn(S(=O)(=O)c2cc(F)c(F)cc2Cl)c1)c1ccccn1 | 1170 nM
22 | O=C(Nc1cnn(S(=O)(=O)c2cc(Cl)ccc2Cl)c1)c1ccccn1 | 197 nM
23 | Cc1ccc(S(=O)(=O)n2cc(NC(=O)c3nccs3)cn2)cc1C | 652 nM
24 | O=C(Nc1cnn(S(=O)(=O)c2ccc(C(F)(F)F)cc2)c1)c1ccccn1 | 266 nM
25 | Cc1cc(F)ccc1S(=O)(=O)n1cc(NC(=O)c2ccccn2)cn1 | 2340 nM
26 | O=C(Nc1cnn(S(=O)(=O)c2ccc(F)c(Cl)c2)c1)c1ccccn1 | 138 nM
27 | O=C(Nc1cnn(S(=O)(=O)c2ccc(F)c(F)c2F)c1)c1ccccn1 | 282 nM
28 | Cc1ccc(S(=O)(=O)n2cc(NC(=O)c3ccccn3)cn2)cc1C | 144 nM
29 | O=C(Nc1cnn(S(=O)(=O)c2cc(F)c(F)c(F)c2)c1)c1ccccn1 | 234 nM
